Results from patent US20250009734A1, “METHODS OF INHIBITING FOXO1 FOR TREATMENT OF LYMPHATIC DISORDERS” (UNIVERSITY OF SOUTH FLORIDA, priority 2023, published 2025).

How the values were obtained:
[1] = test system: human dermal lymphatic endothelial cells (hdLECs); assay: qRT-PCR of valve and flow responsive gene mRNA in cultured hdLECs; type: cell-based
Procedure: FIG. 1. AS1842856 (AS) has a time and concentration dependent effect on valve genes expression. Human dermal lymphatic endothelial cells (hdLECs) were cultured under static conditions and treated for the indicated time (24, 48, and 72 hours) and concentrations from left to right: DMSO 1 μM, AS 0.1 μM, AS 0.5 μM, and AS 1 μM. Afterwards, mRNA of indicated genes was extracted, reverse transcribe and quantified by qRT-PCR analysis. All values are mean±SEM. n=3 experiment repeats; ns=not significant; *p≤0.05, **p≤0.01.
To investigate this, hdLECs were treated with three distinct concentrations of AS1842856-0.1 μM, 0.5 μM, and 1 μM for 24 hours (hrs), 48 hrs, and 72 hrs. DMSO was used as the vehicle control. The medium was changed every day with freshly made drug. Thereafter, the expression levels of valve genes and flow responsive genes, including FOXC2, GATA2, PROX1, KLF4, ITGA9, GJA4, NOS3, and CTNNB1, were determined using quantitative RT-qPCR. […] Deletion of any of these three genes leads to the absence of lymphatic valve formation during embryonic development (Petrova et al., 2004, Kazenwadel et al., 2015, Cha et al., 2016). […] However, the expression of CTNNB1 was not altered.
Human dermal lymphatic endothelial cells (hdLECs) purchased from Promocell (C-12216) were cultured in EBM-V2 (PromoCell, C-22121) media on fibronectin (20 μl/well) coated 6-well plates. hdLECs were treated with 4 different conditions: DMSO (1 μM), AS1842856 (EMD Millipore Corporation) 0.1 μM, 0.5 μM and 1 μM for 3 different time points: 24, 48, and 72 hours for qRT-PCR. For western blot, hdLECs were treated with 0.5 μM AS1842856 for 48 hours.
The RNeasy Plus Mini Kit (Qiagen) was used to isolate total RNA from hdLECs per the manufacturers' instructions. cDNA synthesis was performed using the AdvantageR RT-for-PCR kit (Takara) according to the manufacturer's guidelines. qPCR was performed in a QuantStudio 6 realtime PCR system (Applied Biosystems) with TaqmanR probes (Applied Biosystems, Thermofisher) and the Cq value of each gene was normalized to the that of GAPDH.

[2] = test system: human dermal lymphatic endothelial cells (hdLECs); assay: Immunostaining of PROX1 and β-catenin localization in cultured hdLECs; type: cell-based; settings: 0.5 μM AS for 48 hours, DMSO control: almost exclusively on the cell membrane
Procedure: FIGS. 2A-2F. AS1842856 elevates protein expression of valve genes and promotes b-catenin nuclear localization in cultured hdLECs. (A) hdLECs were cultured under static condition and treated for 48 hours with 0.5 μM DMSO (vehicle control) or 0.5 μM AS treatment. Thereafter, proteins were extracted, and western blot perform for the indicated proteins. ACTB is the loading control. (B) Quantification results of indicated proteins in western blot from three independent experiments. (C-F) Immunostaining of cultured hdLECs for PROX1 and CTNNB1 protein. All values are mean±SEM. n=3 experiment repeats; ns=not significant; *p≤0.05, **p≤0.01, ***p≤0.001. Vehicle control: 0.5 μM DMSO for 48 hours treatment. AS1842856: 0.5 μM AS1842856 for 48 hours treatment. Cells were stained for PROX1 (green) and CTNNB1 (purple). (E) and (F) are the merged images for PROX1 and CTNNB1. Scale bar is 50 μm.
In cells, phosphorylated β-catenin is degraded in a destruction complex in the cytoplasm, but unphosphorylated β-catenin upon activation is translocated to the nucleus from the cytoplasm (Harada et al., 1999). It has been reported that β-catenin in the nucleus of LECs promotes the expression of valve-forming genes FOXC2 and PROX1 by binding to the promoter areas of these two genes (Cha et al., 2016). […]

With `CCn1cc(C(=O)O)c(=O)c2c(N)c(F)c(NC3CCCCC3)cc21` [AS1842856] the “increased expression of FOXC2, GATA2, KLF4, ITGA9, GJA4, NOS3, and PROX1 (comparison of treatment conditions)” value ([1]; 0.5 μM for 48 hrs) was “best results”, the “GATA2 mRNA expression level” value ([1]; 24 hrs or 72 hrs AS treatment vs DMSO) was “not with 24 hrs or 72 hrs treatment” and the “CTNNB1 mRNA expression” value ([1]; 48 hrs AS treatment vs DMSO) was “not altered”. For the same compound, the “FOXC2 mRNA expression level” value ([1]; 48 hrs AS treatment vs DMSO) was “significantly upregulated”, the “GATA2 mRNA expression level” value ([1]; 48 hrs AS treatment vs DMSO) was “significantly upregulated” and the “GJA4 mRNA expression level” value ([1]; 48 hrs AS treatment vs DMSO) was “significantly higher”. For the same compound, the “ITGA9 mRNA expression level” value ([1]; 48 hrs AS treatment vs DMSO) was “significantly higher”, the “KLF4 mRNA expression level” value ([1]; 48 hrs AS treatment vs DMSO) was “significantly increased” and the “NOS3 mRNA expression” value ([1]; 48 hrs AS treatment vs DMSO) was “significantly increased”. The “PROX1 mRNA expression level” value ([1]; 48 hrs AS treatment vs DMSO) was “significantly increased”, the “FOXC2 mRNA expression level” value ([1]; 48 hrs, 0.1 μM) was “trend of increase” and the “GATA2 mRNA expression level” value ([1]; 48 hrs, 0.1 μM) was “trend of increase”. For the same compound, the “GJA4 mRNA expression level” value ([1]; 48 hrs, 0.1 μM and 0.5 μM) was “upregulated”, the “ITGA9 mRNA expression level” value ([1]; 48 hrs, 0.1 μM and 0.5 μM) was “upregulated” and the “NOS3 mRNA expression level” value ([1]; 48 hrs, 0.1 μM and 0.5 μM) was “upregulated”. For the same compound, the “PROX1 mRNA expression level” value ([1]; 48 hrs, 0.1 μM and 0.5 μM) was “upregulated”, the “FOXC2 mRNA expression” value ([1]; 48 hrs, 0.5 μM and 1 μM) was “significant increase” and the “GATA2 mRNA expression” value ([1]; 48 hrs, 0.5 μM and 1 μM) was “significant increase”. The “GJA4 mRNA expression level” value ([1]; 48 hrs, 1 μM) was “not under 1 μM”, the “ITGA9 mRNA expression level” value ([1]; 48 hrs, 1 μM) was “not under 1 μM” and the “NOS3 mRNA expression level” value ([1]; 48 hrs, 1 μM) was “not under 1 μM”. The “PROX1 mRNA expression level” value ([1]; 48 hrs, 1 μM) was “not under 1 μM”, the “CTNNB1 mRNA expression” value ([1]; 48 hrs, 0.1, 0.5 and 1 μM) was “None of the concentrations induced significant upregulation” and the “FOXO1 mRNA expression” value ([1]; 48 hrs, 0.1, 0.5 and 1 μM) was “None of the concentrations induced significant upregulation”. For the same compound, the “KLF4 mRNA expression” value ([1]; 48 hrs, all three concentrations (0.1, 0.5, 1 μM)) was “increased”, the “FOXO1 mRNA expression level” value ([1]; AS treatment vs DMSO) was “not altered” and the “localization of β-catenin (immunostaining)” value [2] was “a remarkable amount of β-catenin was in the nucleus”.
